Results as given in patent US10800791B2, “Triazole ACC inhibitors and uses thereof” (Gilead Apollo, LLC, priority 2015, dated 2020).
Values after ≈ are worked out from the molar mass of the structure shown. Read-outs that look alike come from different tables or passages of the source.

Key:
[1] = system: Botrtyis cinerea (Bc); assay: Growth inhibition assay of fungal pathogens, Bc; assay type: cell-based; settings: 48 h
Summary of the method: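 Read-out: OD600 plus visual rating at 24 and 48 h, blank (media + 2% DMSO) subtracted. Percent inhibition was derived at 48 h versus the 2% DMSO control. Spores were grown in 17% V8 broth with compound at 50/10/2 or 2/0.4/0.08 ppm final.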

[2] = target: fungal (fACC2) (UniProt Q00955); settings: read-out: fACC2 (in vitro ACC2 Inhibition Assay, IC50), ADP-Glo, 5 nM ACC2, 20 μM ATP, 20 μM acetyl-CoA
fungal (fACC2), sequence (Q00955 whole entry): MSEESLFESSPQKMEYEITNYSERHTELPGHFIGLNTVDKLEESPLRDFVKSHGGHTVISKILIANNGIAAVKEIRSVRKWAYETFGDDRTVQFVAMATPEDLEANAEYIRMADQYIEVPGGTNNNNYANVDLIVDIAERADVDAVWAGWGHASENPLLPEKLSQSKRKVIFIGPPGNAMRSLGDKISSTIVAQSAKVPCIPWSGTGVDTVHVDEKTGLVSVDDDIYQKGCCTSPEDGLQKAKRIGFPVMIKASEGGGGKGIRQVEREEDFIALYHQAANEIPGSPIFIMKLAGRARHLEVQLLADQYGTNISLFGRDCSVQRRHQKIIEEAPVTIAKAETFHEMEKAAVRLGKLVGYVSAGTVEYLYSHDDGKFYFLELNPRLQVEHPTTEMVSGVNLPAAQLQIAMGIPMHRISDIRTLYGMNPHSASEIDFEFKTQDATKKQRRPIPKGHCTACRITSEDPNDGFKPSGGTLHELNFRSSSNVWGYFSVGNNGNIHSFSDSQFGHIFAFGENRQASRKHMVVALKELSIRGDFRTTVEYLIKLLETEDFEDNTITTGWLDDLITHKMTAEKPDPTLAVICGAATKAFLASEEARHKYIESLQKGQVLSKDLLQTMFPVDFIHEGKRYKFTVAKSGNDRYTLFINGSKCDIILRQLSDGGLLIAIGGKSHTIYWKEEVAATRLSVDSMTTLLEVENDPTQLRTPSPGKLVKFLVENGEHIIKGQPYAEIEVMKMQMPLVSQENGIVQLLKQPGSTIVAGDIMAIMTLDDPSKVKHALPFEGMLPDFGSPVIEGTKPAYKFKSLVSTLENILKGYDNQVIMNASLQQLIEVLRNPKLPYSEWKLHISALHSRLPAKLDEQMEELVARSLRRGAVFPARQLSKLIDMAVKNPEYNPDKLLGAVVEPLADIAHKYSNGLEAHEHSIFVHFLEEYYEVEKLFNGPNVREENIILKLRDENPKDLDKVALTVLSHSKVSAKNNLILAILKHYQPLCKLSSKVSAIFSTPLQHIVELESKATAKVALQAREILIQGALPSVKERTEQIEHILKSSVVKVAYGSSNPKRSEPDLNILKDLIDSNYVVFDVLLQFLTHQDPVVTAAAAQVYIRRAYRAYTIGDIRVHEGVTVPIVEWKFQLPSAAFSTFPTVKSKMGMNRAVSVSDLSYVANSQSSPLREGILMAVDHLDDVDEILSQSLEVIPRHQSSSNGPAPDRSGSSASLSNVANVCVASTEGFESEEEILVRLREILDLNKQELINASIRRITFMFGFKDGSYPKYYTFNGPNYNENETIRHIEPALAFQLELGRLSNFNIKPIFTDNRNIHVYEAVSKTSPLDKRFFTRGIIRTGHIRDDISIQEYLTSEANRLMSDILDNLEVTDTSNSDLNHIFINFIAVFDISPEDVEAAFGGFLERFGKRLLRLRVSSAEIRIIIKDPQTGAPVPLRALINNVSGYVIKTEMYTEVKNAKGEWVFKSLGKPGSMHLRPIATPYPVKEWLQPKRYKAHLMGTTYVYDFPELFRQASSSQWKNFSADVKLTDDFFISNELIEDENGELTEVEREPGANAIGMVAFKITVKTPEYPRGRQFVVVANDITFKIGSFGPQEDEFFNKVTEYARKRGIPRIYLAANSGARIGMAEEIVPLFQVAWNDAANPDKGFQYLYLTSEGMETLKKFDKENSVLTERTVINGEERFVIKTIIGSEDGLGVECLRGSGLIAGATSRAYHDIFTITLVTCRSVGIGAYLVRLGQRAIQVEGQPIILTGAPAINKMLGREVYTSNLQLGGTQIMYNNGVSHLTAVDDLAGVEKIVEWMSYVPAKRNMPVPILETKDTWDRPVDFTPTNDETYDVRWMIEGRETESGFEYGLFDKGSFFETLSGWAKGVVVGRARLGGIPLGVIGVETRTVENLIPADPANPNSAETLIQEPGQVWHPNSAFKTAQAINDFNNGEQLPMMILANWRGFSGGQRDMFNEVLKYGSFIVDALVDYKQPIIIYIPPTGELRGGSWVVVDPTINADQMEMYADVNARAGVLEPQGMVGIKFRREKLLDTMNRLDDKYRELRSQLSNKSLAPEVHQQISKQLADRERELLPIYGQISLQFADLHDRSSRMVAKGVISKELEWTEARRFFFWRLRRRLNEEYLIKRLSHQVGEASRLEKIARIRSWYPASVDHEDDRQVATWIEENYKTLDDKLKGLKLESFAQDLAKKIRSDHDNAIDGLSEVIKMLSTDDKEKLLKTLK

[3] = Botrtyis cinerea, growth inhibition at 48 hours vs 2% DMSO control, read-out: Concentration at 90% Inhibition Bc
[4] = Botrtyis cinerea, growth inhibition vs 2% DMSO control at 48 hours, read-out: Concentration at 90% Inhibition Bc
[5] = read-out: Concentration at 90% Inhibition Bc, Botrtyis cinerea, growth inhibition at 48 hours vs 2% DMSO control
[6] = read-out: Concentration at 90% Inhibition Bc, Botrtyis cinerea, growth inhibition vs 2% DMSO control at 48 hours

Structure (SMILES)	IC90 [1, 3] [µg/mL]	IC90 [1, 4] [µg/mL]	IC50 ([2]; Table 2a) [nM]	IC50 ([2]; Table 2b, additional results) [nM]	IC90 [1, 5] [µg/mL]	IC90 [1, 6] [µg/mL]
COc1ccc(F)cc1[C@H](Cn1c(=O)n(C(C)(C)C(=O)NC2CCC2)c(=O)c2c(C)c(-n3nccn3)sc21)OC1CCOCC1 [Compound I-27, (R)—N-cyclobutyl-2-(1-(2-(5-fluoro-2-methoxyphenyl)-2-((tetrahydro-2H-pyran-4-yl)oxy)ethyl)-5-methyl-2,4-dioxo-6-(2H-1,2,3-triazol-2-yl)-1,4-dihydrothieno[2,3-d]pyrimidin-3(2H)-yl)-2-methylpropanamide]	0.4 (≈ 0.624 µM)	0.4 (≈ 0.624 µM)	1 to 5	1 to 5	–	–
COc1ccc(F)cc1[C@H](Cn1c(=O)n(C(C)(C)C(=O)NC2CCCCC2)c(=O)c2c(C)c(-n3nccn3)sc21)OC1CCOCC1 [Compound I-28, (R)—N-cyclohexyl-2-(1-(2-(5-fluoro-2-methoxyphenyl)-2-((tetrahydro-2H-pyran-4-yl)oxy)ethyl)-5-methyl-2,4-dioxo-6-(2H-1,2,3-triazol-2-yl)-1,4-dihydrothieno[2,3-d]pyrimidin-3(2H)-yl)-2-methylpropanamide]	–	–	1 to 5	1 to 5	0.4 (≈ 0.598 µM)	0.4 (≈ 0.598 µM)
COc1ccc(F)cc1[C@H](Cn1c(=O)n(C(C)(C)C(=O)NCC(C)C)c(=O)c2c(C)c(-n3nccn3)sc21)OC1CCOCC1 [Compound I-29, (R)-2-(1-(2-(5-fluoro-2-methoxyphenyl)-2-((tetrahydro-2H-pyran-4-yl)oxy)ethyl)-5-methyl-2,4-dioxo-6-(2H-1,2,3-triazol-2-yl)-1,4-dihydro-thieno[2,3-d]pyrimidin-3(2H)-yl)-N-isobutyl-2-methylpropanamide]	0.4 (≈ 0.622 µM)	0.4 (≈ 0.622 µM)	1 to 5	1 to 5	–	–
COc1ccc(F)cc1[C@H](Cn1c(=O)n(C(C)(C)C(=O)N2CCCCC2)c(=O)c2c(C)c(-n3nccn3)sc21)OC1CCC(=O)CC1 [Compound I-34, (R)-1-(2-(5-fluoro-2-methoxyphenyl)-2-((4-oxocyclohexyl)oxy)ethyl)-5-methyl-3-(2-methyl-1-oxo-1-(piperidin-1-yl)propan-2-yl)-6-(2H-1,2,3-triazol-2-yl)thieno[2,3-d]pyrimidine-2,4(1H,3H)-dione]	–	–	1 to 5	1 to 5	0.4 (≈ 0.6 µM)	0.4 (≈ 0.6 µM)
COc1ccc(F)cc1[C@H](Cn1c(=O)n(CC(=O)NC(C)C)c(=O)c2c(C)c(-n3nccn3)sc21)OC(C)C [Compound I-35, (R)-2-(1-(2-(5-fluoro-2-methoxyphenyl)-2-isopropoxy-ethyl)-5-methyl-2,4-dioxo-6-(2H-1,2,3-triazol-2-yl)-1,4-dihydrothieno[2,3-d]pyrimidin-3(2H)-yl)-N-isopropylacetamide]	–	–	1 to 5	1 to 5	0.4 (≈ 0.716 µM)	0.4 (≈ 0.716 µM)
CCO[C@@H](Cn1c(=O)n(C(C)(C)C(=O)N2CCCC2)c(=O)c2c(C)c(-n3nccn3)sc21)c1cc(F)ccc1OC [Compound I-42, (R)-1-(2-ethoxy-2-(5-fluoro-2-methoxyphenyl)ethyl)-5-methyl-3-(2-methyl-1-oxo-1-(pyrrolidin-1-yl)propan-2-yl)-6-(2H-1,2,3-triazol-2-yl)thieno[2,3-d]pyrimidine-2,4(1H,3H)-dione]	0.4 (≈ 0.684 µM)	0.4 (≈ 0.684 µM)	1 to 5	1 to 5	–	–
COc1ccc(F)cc1[C@H](Cn1c(=O)n(C(C)(C)C(=O)NC(C)C)c(=O)c2c(C)c(-n3nccn3)sc21)OCCO [Compound I-43, (R)-2-(1-(2-(5-fluoro-2-methoxyphenyl)-2-(2-hydroxyethoxy)ethyl)-5-methyl-2,4-dioxo-6-(2H-1,2,3-triazol-2-yl)-1,4-dihydrothieno[2,3-d]pyrimidin-3(2H)-yl)-N-isopropyl-2-methylpropanamide]	–	–	0.4 to 1	0.3 to 1	2 (≈ 3.4 µM)	2 (≈ 3.4 µM)
COc1ccc(F)cc1[C@H](Cn1c(=O)n(C(C)(C)C(=O)N2CCCC2)c(=O)c2c(C)c(-n3nccn3)sc21)OCCO [Compound I-44, (R)-1-(2-(5-fluoro-2-methoxyphenyl)-2-(2-hydroxyethoxy)ethyl)-5-methyl-3-(2-methyl-1-oxo-1-(pyrrolidin-1-yl)propan-2-yl)-6-(2H-1,2,3-triazol-2-yl)thieno[2,3-d]pyrimidine-2,4(1H,3H)-dione]	2 (≈ 3.33 µM)	2 (≈ 3.33 µM)	0.4 to 1	0.3 to 1	–	–
COc1ccc(F)cc1[C@H](Cn1c(=O)n(C(C)(C)C(=O)NC(C)C)c(=O)c2c(C)c(-n3nccn3)sc21)OC[C@@H](C)O [Compound I-45, 2-(1-((R)-2-(5-fluoro-2-methoxyphenyl)-2-((R)-2-hydroxypropoxy)ethyl)-5-methyl-2,4-dioxo-6-(2H-1,2,3-triazol-2-yl)-1,4-dihydro-thieno[2,3-d]pyrimidin-3(2H)-yl)-N-isopropyl-2-methylpropanamide]	–	–	1 to 5	1 to 5	2 (≈ 3.32 µM)	2 (≈ 3.32 µM)
COc1ccc(F)cc1[C@H](Cn1c(=O)n(C(C)(C)C(=O)N2CCCC2)c(=O)c2c(C)c(-n3nccn3)sc21)OC[C@@H](C)O [Compound I-46, 1-((R)-2-(5-fluoro-2-methoxyphenyl)-2-((R)-2-hydroxypropoxy)ethyl)-5-methyl-3-(2-methyl-1-oxo-1-(pyrrolidin-1-yl)propan-2-yl)-6-(2H-1,2,3-triazol-2-yl)thieno[2,3-d]pyrimidine-2,4(1H,3H)-dione]	2 (≈ 3.25 µM)	2 (≈ 3.25 µM)	1 to 5	1 to 5	–	–
COc1ccc(F)cc1[C@H](Cn1c(=O)n(C(C)(C)C(=O)NC(C)C)c(=O)c2c(C)c(-n3nccn3)sc21)OC[C@H](C)O [Compound I-47, 2-(1-((R)-2-(5-fluoro-2-methoxyphenyl)-2-((S)-2-hydroxypropoxy)ethyl)-5-methyl-2,4-dioxo-6-(2H-1,2,3-triazol-2-yl)-1,4-dihydro-thieno[2,3-d]pyrimidin-3(2H)-yl)-N-isopropyl-2-methylpropanamide]	–	–	1 to 5	1 to 5	0.4 (≈ 0.664 µM)	0.4 (≈ 0.664 µM)
COc1ccc(F)cc1[C@H](Cn1c(=O)n(C(C)(C)C(=O)N2CCCC2)c(=O)c2c(C)c(-n3nccn3)sc21)OC[C@H](C)O [Compound I-48, 1-((R)-2-(5-fluoro-2-methoxyphenyl)-2-((S)-2-hydroxy-propoxy)ethyl)-5-methyl-3-(2-methyl-1-oxo-1-(pyrrolidin-1-yl)propan-2-yl)-6-(2H-1,2,3-triazol-2-yl)thieno[2,3-d]pyrimidine-2,4(1H,3H)-dione]	2 (≈ 3.25 µM)	2 (≈ 3.25 µM)	0.4 to 1	0.3 to 1	–	–
COc1ccc(F)cc1[C@H](Cn1c(=O)n(C(C)(C)C(=O)N(C)C)c(=O)c2c(C)c(-n3nccn3)sc21)OC(C)C [Compound I-49, (R)-2-(1-(2-(5-fluoro-2-methoxyphenyl)-2-isopropoxy-ethyl)-5-methyl-2,4-dioxo-6-(2H-1,2,3-triazol-2-yl)-1,4-dihydrothieno[2,3-d]pyrimi-din-3(2H)-yl)-N,N,2-trimethylpropanamide]	–	–	1 to 5	1 to 5	0.4 (≈ 0.698 µM)	0.4 (≈ 0.698 µM)
CNC(=O)C(C)(C)n1c(=O)c2c(C)c(-n3nccn3)sc2n(C[C@H](OC(C)C)c2cc(F)ccc2OC)c1=O [Compound I-50, (R)-2-(1-(2-(5-fluoro-2-methoxyphenyl)-2-isopropoxy-ethyl)-5-methyl-2,4-dioxo-6-(2H-1,2,3-triazol-2-yl)-1,4-dihydrothieno[2,3-d]pyrimidin-3(2H)-yl)-N,2-dimethylpropanamide]	–	–	1 to 5	1 to 5	2 (≈ 3.58 µM)	2 (≈ 3.58 µM)
COc1ccc(F)cc1[C@H](Cn1c(=O)n(C(C)(C)C(=O)N2CC=CC2)c(=O)c2c(C)c(-n3nccn3)sc21)OC(C)C [Compound I-51, (R)-3-(1-(2,5-dihydro-1H-pyrrol-1-yl)-2-methyl-1-oxopropan-2-yl)-1-(2-(5-fluoro-2-methoxyphenyl)-2-isopropoxyethyl)-5-methyl-6-(2H-1,2,3-triazol-2-yl)thieno[2,3-d]pyrimidine-2,4(1H,3H)-dione]	0.4 (≈ 0.67 µM)	0.4 (≈ 0.67 µM)	1 to 5	1 to 5	–	–
COc1ccc(F)cc1[C@H](Cn1c(=O)n(C(C)(C)C(=O)NCC#N)c(=O)c2c(C)c(-n3nccn3)sc21)OC(C)C [Compound I-52, (R)—N-(cyanomethyl)-2-(1-(2-(5-fluoro-2-methoxyphenyl)-2-isopropoxyethyl)-5-methyl-2,4-dioxo-6-(2H-1,2,3-triazol-2-yl)-1,4-dihydro-thieno[2,3-d]pyrimidin-3(2H)-yl)-2-methylpropanamide]	–	–	1 to 5	1 to 5	2 (≈ 3.43 µM)	2 (≈ 3.43 µM)
Cc1c(-n2nccn2)sc2c1c(=O)n(C(C)(C)C(=O)NC(C)C)c(=O)n2C[C@H](OC(C)C)c1cc(F)ccc1OCCO [Compound I-53, (R)-2-(1-(2-(5-fluoro-2-(2-hydroxyethoxy)phenyl)-2-isopropoxyethyl)-5-methyl-2,4-dioxo-6-(2H-1,2,3-triazol-2-yl)-1,4-dihydrothieno[2,3-d]pyrimidin-3(2H)-yl)-N-isopropyl-2-methylpropanamide]	0.4 (≈ 0.649 µM)	0.4 (≈ 0.649 µM)	1 to 5	1 to 5	–	–
